Reference: publication PMC7700175, “(E)-1-(Furan-2-yl)-(substituted phenyl)prop-2-en-1-one Derivatives as Tyrosinase Inhibitors and Melanogenesis Inhibition: An In Vitro and In Silico Study” (Molecules, 2020)
Like-named read-outs stand apart in the source and are kept apart here.

Experiments:
[1] = biological target: T1, Mushroom tyrosinase (EC 1.14.18.1) (Agaricus bisporus, UniProt C7FF04); set-up: method as in PMID 30360412; conditions: earlier results of the authors, cited from earlier work
T1 construct: purchased Sigma-Aldrich
T1 sequence (C7FF04 1-392): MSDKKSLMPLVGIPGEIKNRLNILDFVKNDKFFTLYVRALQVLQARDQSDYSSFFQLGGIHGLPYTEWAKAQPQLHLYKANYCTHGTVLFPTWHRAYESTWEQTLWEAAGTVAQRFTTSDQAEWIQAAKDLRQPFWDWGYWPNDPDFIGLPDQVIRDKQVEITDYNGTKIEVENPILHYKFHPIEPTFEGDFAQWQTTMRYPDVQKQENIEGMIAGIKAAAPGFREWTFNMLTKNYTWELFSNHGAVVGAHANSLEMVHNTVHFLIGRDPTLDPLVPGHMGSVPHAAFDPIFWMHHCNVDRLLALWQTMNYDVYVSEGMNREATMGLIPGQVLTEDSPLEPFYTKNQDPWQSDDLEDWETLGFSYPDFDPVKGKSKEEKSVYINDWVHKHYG

[2] = biological target: T2, mushroom tyrosinase (Agaricus bisporus, UniProt C7FF04); conditions: reported inhibitor type of mushroom tyrosinase; cited from earlier work
T2 construct: purchased Sigma-Aldrich
T2 sequence (C7FF04 1-392): as above

[3] = biological target: T1, Mushroom tyrosinase (EC 1.14.18.1); test: Mushroom tyrosinase inhibition assay (L-tyrosine or L-DOPA as substrate); type: biochemical
Protocol: In order to evaluate the inhibitory effects of synthesized furan chalcone derivatives on the enzyme activity, tested compounds were subjected to a mushroom tyrosinase inhibition assay with monophenolase (L-tyrosine) or diphenolase (L-3,4-dihydroxyphenyl-alanine; L-DOPA) as the substrates.
Mushroom tyrosinase inhibition was determined following our previously reported methods. All experiments were done in triplicate. […] The measurement was completed in triplicate for each concentration and averaged. The IC50 values were determined by interpolation of the dose-inhibition % curves.

[4] = IC50 (μM) b, L-DOPA as substrate (diphenolase), mean ± SEM of triplicate
[5] = L-DOPA as substrate (diphenolase), mean ± SEM of triplicate, read-out: IC50 (μM) b
[6] = L-tyrosine as substrate (monophenolase), mean ± SEM of triplicate, read-out: IC50 (μM) a

Compound | IC50 [3, 5] [µM] | IC50 [3, 6] [µM] | further results
O=C(/C=C/c1cccs1)c1ccc(O)cc1O [(E)-2,4-dihydroxyphenyl-(thiophen-2-yl)prop-2-en-1-one] | – | – | IC50 ([1]; diphenolase): 0.93 µM; IC50 ([1]; monophenolase): 0.013 µM
O=C(O)/C=C/c1ccccc1 [Cinnamic acid, reference compound] | – | – | inhibition type [2]: mixed-type; IC50 [3]: > 200 µM; IC50 [3, 4]: > 200 µM
COc1cc(/C=C/C(=O)c2ccco2)cc(OC)c1O [Compound 5, (E)-1-(Furan-2-yl)-3-(4-hydroxy-3,5-dimethoxyphenyl)prop-2-en-1-one] | > 200 | > 200 | –
O=C(/C=C/c1ccc(O)c(Br)c1)c1ccco1 [Compound 6, (E)-3-(3-Bromo-4-hydroxyphenyl)-1-(furan-2-yl)prop-2-en-1-one] | > 200 | 51.2 ± 3.73 | –
O=C(/C=C/c1cc(Br)c(O)c(Br)c1)c1ccco1 [Compound 7, (E)-3-(3,5-Dibromo-4-hydroxyphenyl)-1-(furan-2-yl)prop-2-en-1-one] | 27.2 ± 0.38 | > 200 | –
O=C(O)c1ccccc1C(=O)O [Phthalic acid, reference compound] | – | – | inhibition type [2]: mixed-type; IC50 [3]: > 200 µM; IC50 [3, 4]: > 200 µM

Continued, in another order:

IC50 [3, 5] [µM] | IC50 [3, 6] [µM] | Compound | further results
> 200 | 28.9 ± 1.21 | O=C(/C=C/c1ccc(O)cc1)c1ccco1 [Compound 1, (E)-1-(Furan-2-yl)-3-(4-hydroxyphenyl)prop-2-en-1-one] | –
24.9 ± 3.25 | 84.9 ± 3.79 | O=C(/C=C/c1ccc(O)c(O)c1)c1ccco1 [Compound 2, (E)-3-(3,4-Dihydroxyphenyl)-1-(furan-2-yl)prop-2-en-1-one] | –
> 200 | > 200 | COc1cc(/C=C/C(=O)c2ccco2)ccc1O [Compound 3, (E)-1-(Furan-2-yl)-3-(4-hydroxy-3-methoxyphenyl)prop-2-en-1-one] | –
37.4 ± 4.89 | 13.6 ± 3.74 | COc1ccc(/C=C/C(=O)c2ccco2)cc1O [Compound 4, (E)-1-(Furan-2-yl)-3-(3-hydroxy-4-methoxyphenyl)prop-2-en-1-one] | –
